Measurements: patent US8227463B2, “Amorphous body composed of heterocyclic compound, solid dispersion and pharmaceutical preparation each comprising the same, and process for production of the same” (Zenyaku Kogyo Kabushiki Kaisha, priority 2007, dated 2012)

Legend:
[1] = Blood concentration measurement of the test compound in rats after oral administration of the preparations; type: in vivo, SD male rats
Protocol: 7-week old SD male rats were purchased from Charles River Laboratories Japan (Inc.), preliminarily kept for a week and then used for experiments. Fasting began 16 hours before drug administration, and each of the preparations obtained from Examples 1, 4 and 5, when used, was mixed with distilled water to make a 100 mg/5 ml/kg test compound suspension, which was administered orally. Blood was sequentially collected from the tail vein using heparin-treated glass blood collection tubes from 15 min. to 24 or 30 hours after the administration of these preparations, centrifuged (3,000 rpm, 10 min., 4° C.) to obtain plasma, and the blood concentration of the test compound was evaluated (FIG. 3).

[2] = Changes in the state of the amorphous body on storage, analysed by powder X-ray diffraction; type: physicochemical; details: ordinary temperature
Protocol: When a crystal of the test compound obtained by common procedures was analyzed using the powder X-ray diffraction method, several characteristic peaks at diffraction angles 2θ=5 to 14, and especially at 2θ=7 to 10, were observed (FIG. 1). In contrast, when the preparations obtained in Examples 1 and 2 were analyzed using the powder X-ray diffraction (XRD) method, the peaks at diffraction angles characteristic to a crystalline form were not observed, and it was clear that the test compound was in an amorphized state in these preparations (FIG. 2).
In order to investigate the changes in the state of an amorphous body of the test compound, a solid dispersion produced by the spray drying method with a 1:2.5 test compound to HPMC compounding ratio was stored under certain conditions, and changes in the state of the amorphous body of the test compound were analyzed by powder X-ray diffraction similar to Example 3.
The present tablets were filled into a glass jar, sealed and evaluated for the stability of the amorphous body after 6 months of storage at 40° C. (75% RH).

Bioavailability / absorbability of amorphized test compound ([1]; compared to the crystallized form)	Structure (SMILES)	Stability of the amorphous state over time [2]	Bioavailability in rats after grain refinement ([1]; grain refinement using a jet mill, a microfluidizer or an agitation mill)
extremely high absorbability	FC(F)c1nc2ccccc2n1-c1nc(N2CCOCC2)nc(N2CCOCC2)n1 [amorphous form of the test compound, 2-(2-difluoromethylbenzimidazol-1-yl)-4,6-dimorpholino-1,3,5-triazine]	stable for a long period of time at ordinary temperature	–
–	FC(F)c1nc2ccccc2n1-c1nc(N2CCOCC2)nc(N2CCOCC2)n1 [test compound, 2-(2-difluoromethylbenzimidazol-1-yl)-4,6-dimorpholino-1,3,5-triazine]	–	an improvement in the bioavailability was not observed
